Laboratory results as given in patent US11000033B2, “Ketone or oxime compound, and herbicide” (NISSAN CHEMICAL CORPORATION, priority 2014, dated 2021).

Experiments:
Type in all cases: in vivo
[1] = test system: Echinochloa oryzacola Vasing.; test: Test Example 2: herbicidal activity, application during weed generation in submerged conditions (symbol A); settings: Table 23; application herbicide amount 320 g/ha; grade 0-5 by criteria of Test Example 1
Outline: (§1)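 Flooded-soil post-emergence test: emulsion of compound, water-diluted to target rate, applied to paddy water surface at 1–2 leaf stage of mixed-sown weeds (alluvial soil, 4 cm water, 25–30° C. greenhouse); visual rating 3 weeks after application.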

Monochoria vaginalis = test: Test Example 2: herbicidal activity, application during weed generation in submerged conditions (symbol C); settings: Table 23; application herbicide amount 320 g/ha; grade 0-5 by criteria of Test Example 1
Outline: as §1

[2] = test system: Echinochloa crus-galli var. crus-galli; test: Test Example 3: herbicidal effect by foliage application, Wagner pot (symbol H); settings: application herbicide amount 320 g/ha
Outline: (§2)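 Rating at 3 weeks post-spray, by defined criteria. Treatment: emulsion diluted with water to a predetermined amount, applied evenly to foliage of 14-day-old plants raised in alluvial soil flooded 0.1–0.5 cm deep at 25–30 °C, rice co-sown.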

Leptochloa chinensis = test: Test Example 3: herbicidal effect by foliage application, Wagner pot (symbol D); settings: application herbicide amount 320 g/ha
Outline: as §2

Cyperus difformis = test: Test Example 3: herbicidal effect by foliage application, Wagner pot (symbol E); settings: application herbicide amount 320 g/ha
Outline: as §2

Digitaria ciliaris = test: Test Example 4: herbicidal effect by soil treatment (symbol F); settings: application herbicide amount 320 g/ha
Outline: (§3)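 Seeds were sown in sterilized diluvial soil, covered with about 1.5 cm of soil, and the soil surface was sprayed with a water-diluted emulsion of the compound at a predetermined rate. Plants grew in a greenhouse at 25° C. to 30° C.; effects were scored visually 3 weeks after application.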

Setaria viridis = test: Test Example 4: herbicidal effect by soil treatment (symbol G); settings: application herbicide amount 320 g/ha
Outline: as §3

Alopecurus myosuroides = test: Test Example 4: herbicidal effect by soil treatment (symbol J); settings: application herbicide amount 320 g/ha
Outline: as §3

Abutilon theophrasti = test: Test Example 4: herbicidal effect by soil treatment (symbol M); settings: application herbicide amount 320 g/ha
Outline: as §3

Stellaria media [3] = test: Test Example 4: herbicidal effect by soil treatment (symbol P); settings: application herbicide amount 320 g/ha
Outline: as §3

Veronica persica = test: Test Example 4: herbicidal effect by soil treatment (symbol R); settings: application herbicide amount 320 g/ha
Outline: as §3

corn = test: Test Example 4: effect on crop by soil treatment (symbol c); settings: application herbicide amount 320 g/ha
Outline: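 Diluvial soil (sterilized) in boxes; seeds placed spot-wise alongside weed species; ~1.5 cm covering soil. Greenhouse, 25–30° C.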

Stellaria media [4] = test: Test Example 5: herbicidal effect by foliage application, plastic box (symbol P); settings: 320 g/ha, 3 weeks after application
Outline: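 Leaf-applied emulsion, water-diluted to a preset herbicide dose, on two-week-old seedlings raised in a 25° C. to 30° C. greenhouse; injury rated at 3 weeks using earlier criteria.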

wheat = test: Test Example 5: effect on crop by foliage application, plastic box (symbol e); settings: 320 g/ha, 3 weeks after application
Outline: (§4)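 Diluvial soil, sterilized and boxed (21 × 13 × 7 cm), received spot-sown seed covered by about 1.5 cm soil; plants were then greenhouse-grown at 25–30° C.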

rapeseed = test: Test Example 5: effect on crop by foliage application, plastic box (symbol g); settings: 320 g/ha, 3 weeks after application
Outline: as §4

Row | Structure (SMILES) | Herbicidal effect grade, A: Echinochloa oryzacola Vasing. [1] | Herbicidal effect grade, C: Monochoria vaginalis (Monochoria vaginalis) | herbicidal effect on H (Echinochloa crus-galli var. crus-galli), grade 0-5 [2] | herbicidal effect on D (Leptochloa chinensis), grade 0-5 (Leptochloa chinensis) | herbicidal effect on E, grade 0-5 (Cyperus difformis) | F: Digitaria ciliaris, herbicidal effect grade (Digitaria ciliaris) | G: Setaria viridis, herbicidal effect grade (Setaria viridis) | J: Alopecurus myosuroides, herbicidal effect grade (Alopecurus myosuroides) | M: Abutilon theophrasti, herbicidal effect grade (Abutilon theophrasti) | P: Stellaria media, herbicidal effect grade (Stellaria media [3]) | R: Veronica persica, herbicidal effect grade (Veronica persica) | c: corn, effect on crop grade (corn) | P: Stellaria media, herbicidal effect (criteria of Test Example 1) (Stellaria media [4]) | e: wheat, effect on crop (criteria of Test Example 1) (wheat) | g: rapeseed, effect on crop (criteria of Test Example 1) (rapeseed)
1 | CON=C(C)CC1CC(OC(=O)N2CCOCC2)=C(c2c(C)cc(-c3ccc(F)cc3)cc2C)C1=O (mixture of isomers) [6-059] | 5 (Herbicidal ratio of 90% or more (almost completely withered)) | 4 (Herbicidal ratio of 70% or higher and lower than 90%) | 5 (Herbicidal ratio of 90% or more (almost completely withered)) | 5 (Herbicidal ratio of 90% or more (almost completely withered)) | 5 (Herbicidal ratio of 90% or more (almost completely withered)) | 5 (Herbicidal ratio of 90% or more (almost completely withered)) | 5 (Herbicidal ratio of 90% or more (almost completely withered)) | 5 (Herbicidal ratio of 90% or more (almost completely withered)) | 0 (Herbicidal ratio of 5% or lower (almost no effect)) | 0 (Herbicidal ratio of 5% or lower (almost no effect)) | 3 (Herbicidal ratio of 40% or higher and lower than 70%) | 0 (Herbicidal ratio of 5% or lower (almost no effect)) | 4 (Herbicidal ratio of 70% or higher and lower than 90%) | 5 (Herbicidal ratio of 90% or more (almost completely withered)) | 5 (Herbicidal ratio of 90% or more (almost completely withered))
2 | CON=C(C)CC1CC(OS(=O)(=O)N(C)C)=C(c2c(C)cc(-c3ccc(F)cc3)cc2C)C1=O (mixture of isomers) [6-060] | 5 (Herbicidal ratio of 90% or more (almost completely withered)) | 4 (Herbicidal ratio of 70% or higher and lower than 90%) | 5 (Herbicidal ratio of 90% or more (almost completely withered)) | 5 (Herbicidal ratio of 90% or more (almost completely withered)) | 5 (Herbicidal ratio of 90% or more (almost completely withered)) | 5 (Herbicidal ratio of 90% or more (almost completely withered)) | 5 (Herbicidal ratio of 90% or more (almost completely withered)) | 3 (Herbicidal ratio of 40% or higher and lower than 70%) | 0 (Herbicidal ratio of 5% or lower (almost no effect)) | 0 (Herbicidal ratio of 5% or lower (almost no effect)) | 2 (Herbicidal ratio of 20% or higher and lower than 40%) | 0 (Herbicidal ratio of 5% or lower (almost no effect)) | 4 (Herbicidal ratio of 70% or higher and lower than 90%) | 4 (Herbicidal ratio of 70% or higher and lower than 90%) | 5 (Herbicidal ratio of 90% or more (almost completely withered))
3 | CON=C(C)CC1CC(OC(=O)COc2ccccc2)=C(c2c(C)cc(-c3ccc(Cl)cc3)cc2C)C1=O (mixture of isomers) [6-061] | 5 (Herbicidal ratio of 90% or more (almost completely withered)) | 2 (Herbicidal ratio of 20% or higher and lower than 40%) | 5 (Herbicidal ratio of 90% or more (almost completely withered)) | 5 (Herbicidal ratio of 90% or more (almost completely withered)) | 5 (Herbicidal ratio of 90% or more (almost completely withered)) | 5 (Herbicidal ratio of 90% or more (almost completely withered)) | 5 (Herbicidal ratio of 90% or more (almost completely withered)) | 5 (Herbicidal ratio of 90% or more (almost completely withered)) | 1 (Herbicidal ratio of 5% or higher and lower than 20%) | 3 (Herbicidal ratio of 40% or higher and lower than 70%) | 4 (Herbicidal ratio of 70% or higher and lower than 90%) | 0 (Herbicidal ratio of 5% or lower (almost no effect)) | 3 (Herbicidal ratio of 40% or higher and lower than 70%) | 5 (Herbicidal ratio of 90% or more (almost completely withered)) | 4 (Herbicidal ratio of 70% or higher and lower than 90%)
4 | CON=C(C)CC1CC(OC(=O)N2CCOCC2)=C(c2c(C)cc(-c3ccc(Cl)cc3)cc2C)C1=O (mixture of isomers) [6-062] | 5 (Herbicidal ratio of 90% or more (almost completely withered)) | 3 (Herbicidal ratio of 40% or higher and lower than 70%) | 5 (Herbicidal ratio of 90% or more (almost completely withered)) | 5 (Herbicidal ratio of 90% or more (almost completely withered)) | 5 (Herbicidal ratio of 90% or more (almost completely withered)) | 3 (Herbicidal ratio of 40% or higher and lower than 70%) | 5 (Herbicidal ratio of 90% or more (almost completely withered)) | 4 (Herbicidal ratio of 70% or higher and lower than 90%) | 0 (Herbicidal ratio of 5% or lower (almost no effect)) | 3 (Herbicidal ratio of 40% or higher and lower than 70%) | 3 (Herbicidal ratio of 40% or higher and lower than 70%) | 0 (Herbicidal ratio of 5% or lower (almost no effect)) | 3 (Herbicidal ratio of 40% or higher and lower than 70%) | 5 (Herbicidal ratio of 90% or more (almost completely withered)) | 4 (Herbicidal ratio of 70% or higher and lower than 90%)
5 | CON=C(C)CC1CC(OC(=O)N(C)C)=C(c2c(C)cc(-c3ccc(Cl)cc3)cc2C)C1=O (mixture of isomers) [6-063] | 2 (Herbicidal ratio of 20% or higher and lower than 40%) | 2 (Herbicidal ratio of 20% or higher and lower than 40%) | 4 (Herbicidal ratio of 70% or higher and lower than 90%) | 5 (Herbicidal ratio of 90% or more (almost completely withered)) | 1 (Herbicidal ratio of 5% or higher and lower than 20%) | 5 (Herbicidal ratio of 90% or more (almost completely withered)) | 1 (Herbicidal ratio of 5% or higher and lower than 20%) | 0 (Herbicidal ratio of 5% or lower (almost no effect)) | 0 (Herbicidal ratio of 5% or lower (almost no effect)) | 0 (Herbicidal ratio of 5% or lower (almost no effect)) | 0 (Herbicidal ratio of 5% or lower (almost no effect)) | 0 (Herbicidal ratio of 5% or lower (almost no effect)) | 0 (Herbicidal ratio of 5% or lower (almost no effect)) | 4 (Herbicidal ratio of 70% or higher and lower than 90%) | 4 (Herbicidal ratio of 70% or higher and lower than 90%)
